# Reference: patent publication US20190365776A1, “THERAPEUTIC AGENT FOR OCULAR FUNDUS DISEASE” (KYUSHU UNIVERSITY, NATIONAL UNIVERSITY CORPORATION, priority 2013, published 2019)
# Tests used:
# [1] = test system: mice OIR (Oxygen-Induced Retinopathy) model; assay: Mice OIR model, fluorescein fundus angiography; format: in vivo, C57BL/6JJcl mice; details: 0.8% solution, ocular instillation three times a day, day 17 after birth
# Text: C57BL/6JJcl mice born on the same day were reared in a 75%-oxygen environment from day 7 after birth, and were then transferred to a normal indoor environment on day 12 after birth to start administration by ocular instillation. Test groups were a saline instillation group (control), a 0.4% compound 1 solution instillation group, a 0.8% compound 1 solution instillation group, and a 0.4% fasudil solution instillation group, and saline, the compound 1 solution, or the fasudil solution was administered by ocular instillation three times a day. On day 17 after birth, ischemic retinal areas (non-perfused areas) and neovascular areas were quantified for evaluation by flat-mounting or fluorescein fundus angiography. More specifically, 1 g/kg of pentobarbital (Nembutal) was administered intraperitoneally for euthanasia under deep anesthesia, and then both eyeballs were excised and fixed with 4% paraformaldehyde (PFA) at 37° C. for 1 hour, and the corneal limbus was circumferentially incised to remove the cornea and iris from the eyeball. […] Then, the image of the flat-mounted retina was taken with a fluorescence microscope (BZ-9000, KEYENCE Corp, Osaka, Japan), and the proportion of the non-perfused area to the entire retina and the proportion of the neovascular area to the entire retina were calculated by the following formulas in NIH image J software. […]
# [2] = test system: b-END3 (bEND.3) mouse brain microvascular endothelial cells; assay: Tight junction test: Claudin-5 immunostaining in b-END3 cells; format: cell-based; details: pretreatment 3 μM or 30 μM, 3 hours; VEGF 25 ng/mL or IL-6 10 ng/mL, 24 hours
# Experimental: According to a conventional method, b-END3 (bEND.3: ATCC CRL-2299™) cells, which are mouse brain microvascular endothelial cells, were subcultured in 3.5 cm dishes (9×10^5 cells/dish), and a test was started from day 6 after subculture. […]
# The cells after the test were subjected to immunostaining according to the following procedure to evaluate the expression of Claudin-5 or F-Actin. […] Then, a cover glass-sized cell sample was prepared by trimming with a cotton swab, enclosed with a Dako pen, blocked with 10% normal goat serum (10% normal goat serum ready-to-use (Invitrogen)) (30 min, ordinary temperature), and allowed to stand at 4° C. overnight. […]
smiles,measurement,setting,value
"C[C@H]1CNCCCN1S(=O)(=O)c1cccc2cncc(F)c12 [compound 1, (S)-(−)-1-(4-fluoro-5-isoquinolinesulfonyl)-2-methyl-1,4-homopiperazine]",relative value of the neovascular area (saline instillation group = 100%),[1],41.6%
same,Claudin-5 expression decreased by VEGF stimulation or IL-6 stimulation,[2],improvement in Claudin-5 expression
